Holding throughout (format): binding
Assay [1] addresses T1, HeLa cell extract proteins (Homo sapiens, UniProt O95429).
T1 construct: endogenous in cells; host or cells: HeLa cell extract
T1 sequence (O95429 1-457): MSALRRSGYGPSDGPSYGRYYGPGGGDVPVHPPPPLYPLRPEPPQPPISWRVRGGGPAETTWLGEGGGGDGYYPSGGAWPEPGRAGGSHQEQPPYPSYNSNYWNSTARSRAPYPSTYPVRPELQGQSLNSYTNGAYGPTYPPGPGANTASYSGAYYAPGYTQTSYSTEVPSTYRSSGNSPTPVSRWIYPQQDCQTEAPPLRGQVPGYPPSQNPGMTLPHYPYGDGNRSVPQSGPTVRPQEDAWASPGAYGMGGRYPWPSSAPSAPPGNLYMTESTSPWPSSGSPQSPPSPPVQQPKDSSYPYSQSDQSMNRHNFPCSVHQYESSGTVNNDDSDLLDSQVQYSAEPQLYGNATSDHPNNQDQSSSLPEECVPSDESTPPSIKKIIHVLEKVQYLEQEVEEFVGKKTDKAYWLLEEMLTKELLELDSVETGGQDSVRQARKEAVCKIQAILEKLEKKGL

The target of assay [2] is T2, HeLa cell extract proteins (Homo sapiens, UniProt P10515).
T2 construct: endogenous in cells; host or cells: HeLa cell extract
T2 sequence (P10515 87-647): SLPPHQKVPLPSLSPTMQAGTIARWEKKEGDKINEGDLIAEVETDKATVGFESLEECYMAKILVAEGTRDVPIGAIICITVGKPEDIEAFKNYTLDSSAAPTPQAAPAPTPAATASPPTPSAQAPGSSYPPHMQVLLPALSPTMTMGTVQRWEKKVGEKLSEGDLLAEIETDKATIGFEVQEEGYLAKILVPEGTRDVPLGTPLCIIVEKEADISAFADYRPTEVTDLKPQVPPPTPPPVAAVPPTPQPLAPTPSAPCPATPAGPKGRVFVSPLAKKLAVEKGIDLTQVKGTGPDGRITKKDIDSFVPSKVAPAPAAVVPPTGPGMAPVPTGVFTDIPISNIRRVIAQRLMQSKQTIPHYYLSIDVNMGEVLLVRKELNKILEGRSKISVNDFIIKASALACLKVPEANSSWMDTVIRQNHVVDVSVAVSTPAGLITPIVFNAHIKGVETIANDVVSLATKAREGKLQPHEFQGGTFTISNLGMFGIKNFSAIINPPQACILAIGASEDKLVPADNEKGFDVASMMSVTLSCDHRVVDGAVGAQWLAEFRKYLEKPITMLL

The target of assay [3] is T3, HeLa cell extract proteins (Homo sapiens, UniProt P16219).
T3 construct: endogenous in cells; host or cells: HeLa cell extract
T3 sequence (P16219 25-412): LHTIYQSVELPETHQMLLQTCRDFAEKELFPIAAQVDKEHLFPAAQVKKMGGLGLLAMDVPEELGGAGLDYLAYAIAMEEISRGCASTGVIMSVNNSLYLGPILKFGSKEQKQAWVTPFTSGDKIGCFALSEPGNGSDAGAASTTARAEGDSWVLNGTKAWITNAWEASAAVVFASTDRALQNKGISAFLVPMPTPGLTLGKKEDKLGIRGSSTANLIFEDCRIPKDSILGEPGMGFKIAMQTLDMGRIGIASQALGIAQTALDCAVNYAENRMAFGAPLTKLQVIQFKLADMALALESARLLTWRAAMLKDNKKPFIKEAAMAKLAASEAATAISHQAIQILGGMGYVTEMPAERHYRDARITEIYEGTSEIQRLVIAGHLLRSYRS

Assay [4] has as its target T4, HeLa cell extract proteins (Homo sapiens, UniProt P24539).
T4 construct: endogenous in cells; host or cells: HeLa cell extract
T4 sequence (P24539 43-256): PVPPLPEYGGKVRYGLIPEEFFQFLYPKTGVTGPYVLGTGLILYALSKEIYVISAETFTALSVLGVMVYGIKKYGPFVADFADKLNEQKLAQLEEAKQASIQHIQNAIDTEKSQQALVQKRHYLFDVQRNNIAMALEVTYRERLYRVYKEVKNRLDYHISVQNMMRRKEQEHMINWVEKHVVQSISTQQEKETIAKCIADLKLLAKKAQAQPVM

In assay [5] the target is T5, HeLa cell extract proteins (Homo sapiens, UniProt P34932).
T5 construct: endogenous in cells; host or cells: HeLa cell extract

In assay [6] the target is T6, HeLa cell extract proteins (Homo sapiens, UniProt P51858).
T6 construct: endogenous in cells; host or cells: HeLa cell extract

Assay [7] has as its target T7, HeLa cell extract proteins (Homo sapiens, UniProt P67775).
T7 construct: endogenous in cells; host or cells: HeLa cell extract

The target in assay [8] is T8, HeLa cell extract proteins (Homo sapiens, UniProt Q16831).
T8 construct: endogenous in cells; host or cells: HeLa cell extract

Assay [9] addresses T9, HeLa cell extract proteins (Homo sapiens, UniProt Q9Y678).
T9 construct: endogenous in cells; host or cells: HeLa cell extract
T9 sequence (Q9Y678 1-874): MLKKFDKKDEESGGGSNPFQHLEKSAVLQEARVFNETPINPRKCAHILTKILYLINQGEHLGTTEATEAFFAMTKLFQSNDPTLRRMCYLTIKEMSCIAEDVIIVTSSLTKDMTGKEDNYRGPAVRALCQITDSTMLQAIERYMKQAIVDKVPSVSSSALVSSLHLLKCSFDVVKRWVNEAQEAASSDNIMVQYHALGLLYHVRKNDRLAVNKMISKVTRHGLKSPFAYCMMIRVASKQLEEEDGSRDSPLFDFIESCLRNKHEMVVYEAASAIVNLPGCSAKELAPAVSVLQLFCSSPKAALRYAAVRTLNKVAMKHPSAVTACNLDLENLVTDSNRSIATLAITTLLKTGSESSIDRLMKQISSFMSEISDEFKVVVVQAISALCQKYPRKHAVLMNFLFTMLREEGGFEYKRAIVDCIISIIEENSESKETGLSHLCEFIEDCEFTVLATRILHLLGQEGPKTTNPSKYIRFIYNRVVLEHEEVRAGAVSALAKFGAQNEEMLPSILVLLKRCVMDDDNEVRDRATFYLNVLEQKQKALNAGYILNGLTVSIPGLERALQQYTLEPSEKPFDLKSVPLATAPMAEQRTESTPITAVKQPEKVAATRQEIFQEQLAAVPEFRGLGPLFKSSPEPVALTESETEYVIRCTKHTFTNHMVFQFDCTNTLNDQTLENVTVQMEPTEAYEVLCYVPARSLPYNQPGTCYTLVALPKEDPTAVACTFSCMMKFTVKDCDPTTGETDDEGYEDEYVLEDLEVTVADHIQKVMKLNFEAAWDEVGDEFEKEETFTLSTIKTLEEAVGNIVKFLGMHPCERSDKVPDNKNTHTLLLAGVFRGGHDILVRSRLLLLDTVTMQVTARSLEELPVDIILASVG

Where [10] appears, read: HeLa, protein BAG4 (BAG FAMILY MOLECULAR CHAPERONE REGULATOR 4).
Where [11] appears, read: HeLa, protein DLAT (DIHYDROLIPOYLLYSINE-RESIDUE ACETYLTRANSFERASE COMPONENT OF PYRUVATE DEHYDROGENASE COMPLEX, MITOCHONDRIAL).
Where [12] appears, read: HeLa, protein ACADS (SHORT-CHAIN SPECIFIC ACYL-COA DEHYDROGENASE, MIT[…]).
Setting [13] is: HeLa, protein UPP1 (ISOFORM 1 OF URIDINE PHOSPHORYLASE 1).

Molecules are shown by their SMILES. Read-outs that look alike come from different tables or passages of the source.

The record followed here is paper PMC6199744, “Development of Chemical Proteomics for the Folateome and Analysis of the Kinetoplastid Folateome” (ACS Infectious Diseases, 2018).

T8 sequence (Q16831 whole entry): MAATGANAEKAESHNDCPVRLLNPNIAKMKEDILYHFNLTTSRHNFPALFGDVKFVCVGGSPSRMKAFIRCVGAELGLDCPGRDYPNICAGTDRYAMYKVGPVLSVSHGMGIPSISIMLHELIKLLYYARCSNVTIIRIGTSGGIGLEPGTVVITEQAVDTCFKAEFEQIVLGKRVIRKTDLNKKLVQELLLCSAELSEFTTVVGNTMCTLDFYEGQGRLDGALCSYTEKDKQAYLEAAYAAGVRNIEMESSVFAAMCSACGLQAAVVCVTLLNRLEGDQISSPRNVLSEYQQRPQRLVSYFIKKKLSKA
T6 sequence (P51858 whole entry): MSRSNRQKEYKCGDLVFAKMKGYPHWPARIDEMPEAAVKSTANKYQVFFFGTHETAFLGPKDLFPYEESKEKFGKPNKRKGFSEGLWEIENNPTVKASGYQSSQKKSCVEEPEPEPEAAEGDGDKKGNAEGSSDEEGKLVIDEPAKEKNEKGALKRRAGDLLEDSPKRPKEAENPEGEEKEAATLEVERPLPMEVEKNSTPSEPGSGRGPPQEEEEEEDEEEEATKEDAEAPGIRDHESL
T5 sequence (P34932 whole entry): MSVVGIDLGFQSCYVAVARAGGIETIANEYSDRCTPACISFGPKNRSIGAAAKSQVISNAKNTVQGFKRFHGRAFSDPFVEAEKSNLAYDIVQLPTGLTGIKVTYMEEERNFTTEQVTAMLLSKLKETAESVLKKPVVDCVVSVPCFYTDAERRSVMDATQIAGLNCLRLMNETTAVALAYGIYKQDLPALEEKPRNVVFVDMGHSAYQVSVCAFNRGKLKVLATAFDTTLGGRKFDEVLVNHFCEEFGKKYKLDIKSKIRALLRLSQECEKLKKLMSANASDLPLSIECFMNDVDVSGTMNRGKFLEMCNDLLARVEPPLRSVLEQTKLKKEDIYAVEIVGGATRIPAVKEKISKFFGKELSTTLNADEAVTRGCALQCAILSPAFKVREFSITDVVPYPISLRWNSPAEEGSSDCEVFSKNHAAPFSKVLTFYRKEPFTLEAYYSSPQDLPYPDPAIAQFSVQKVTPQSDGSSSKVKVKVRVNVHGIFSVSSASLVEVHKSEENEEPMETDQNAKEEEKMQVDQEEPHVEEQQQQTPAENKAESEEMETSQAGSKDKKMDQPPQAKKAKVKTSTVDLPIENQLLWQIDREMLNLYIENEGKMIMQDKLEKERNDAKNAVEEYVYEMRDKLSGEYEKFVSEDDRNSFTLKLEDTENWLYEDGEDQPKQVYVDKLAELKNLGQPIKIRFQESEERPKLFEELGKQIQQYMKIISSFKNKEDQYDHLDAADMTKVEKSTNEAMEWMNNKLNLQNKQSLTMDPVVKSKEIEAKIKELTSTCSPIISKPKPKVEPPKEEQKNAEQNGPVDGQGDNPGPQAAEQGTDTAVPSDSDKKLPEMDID
T7 sequence (P67775 whole entry): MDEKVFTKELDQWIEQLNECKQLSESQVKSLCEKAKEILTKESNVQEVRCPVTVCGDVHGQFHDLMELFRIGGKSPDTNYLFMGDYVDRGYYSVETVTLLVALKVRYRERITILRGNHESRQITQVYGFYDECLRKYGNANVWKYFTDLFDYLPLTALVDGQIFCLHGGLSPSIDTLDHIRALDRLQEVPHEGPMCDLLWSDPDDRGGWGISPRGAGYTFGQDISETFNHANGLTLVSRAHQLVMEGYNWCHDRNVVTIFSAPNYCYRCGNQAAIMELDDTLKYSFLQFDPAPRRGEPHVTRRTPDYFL

As to `CCCCCCOc1cccc(Cc2cnc(N)nc2N)c1` [compound 2], the “fold changes relative to vehicle control” value in assay [1] (captured protein BAG4, HeLa) is given as 0.93; in assay [2] (protein DLAT, HeLa), 0.39; in assay [3] (protein ACADS, HeLa), 1.1; in assay [4] (HeLa, protein ATP5F1), 0.85; in assay [5] (protein HSPA4, HeLa) it was 2.1; in [6] (protein HDGF, HeLa), 2.45. For the same compound, the “fold changes relative to vehicle control” value turned out to be 1.02 in assay [7] (HeLa, protein PPP2CA); 1.16 in [8] (HeLa, protein UPP1); 1.39 in assay [9] (protein COPG, HeLa).

As for `NCCOCCOCC(=O)Nc1nc2ncc(CNc3ccc(C(=O)NC(CCC(=O)O)C(=O)O)cc3)nc2c(=O)[nH]1` (stereo not drawn) [compound 6], the “fold changes relative to vehicle control” value in assay [1] (setting [10]) came out at 1.03; in [2] (setting [11]) it was 0.92; in assay [3] (setting [12]), 1.07; in [4] (HeLa, captured protein ATP5F1), 0.96; in assay [5] (HeLa, protein HSPA4) it was 1.26; in assay [6] (HeLa, protein HDGF), 1.31. Also, the “fold changes relative to vehicle control” value is listed as 0.91 in assay [7] (HeLa, captured protein PPP2CA); 0.44 in assay [8] (setting [13]); 1.03 in [9] (protein COPG, HeLa).

In the case of `CCCCCCOc1ccc(Cc2cnc(N)nc2N)cc1` [compound 1], the “fold changes relative to vehicle control” value in assay [1] (captured protein BAG4, HeLa) is on record as 0.99; in assay [2] (protein DLAT, HeLa), 0.98; in assay [3] (protein ACADS, HeLa), 0.91; in assay [4] (HeLa, protein ATP5F1) it was 1.05; in [5] (protein HSPA4, HeLa), 1.19; in assay [6] (protein HDGF, HeLa), 1.26. The “fold changes relative to vehicle control” value in [7] (HeLa, protein PPP2CA) came out at 0.87; in assay [8] (HeLa, protein UPP1) it was 0.88; in assay [9] (protein COPG, HeLa), 0.93.

Consider `Nc1nc2c(c(=O)[nH]1)N(C=O)C(CNc1ccc(C(=O)N[C@@H](CCC(=O)O)C(=O)O)cc1)CN2` (stereo partly drawn) [LEU, leucovorin], for which the “fold changes relative to vehicle control” value came to 1.2 in assay [1] (setting [10]); 1.05 in [2] (HeLa, protein DLAT ([…]-RESIDUE ACETYLT[…] OF PYRUVATE DEH[…], MITOCHONDRIAL)); 1.06 in assay [3] (setting [12]); 1.15 in assay [4] (HeLa, captured protein ATP5F1); 0.97 in assay [5] (HeLa, protein HSPA4); 1.06 in assay [6] (HeLa, protein HDGF). The “fold changes relative to vehicle control” value in assay [7] (HeLa, captured protein PPP2CA) is reported as 0.95; in [8] (setting [13]), 1.01; in assay [9] (protein COPG, HeLa), 0.91.

For `NCCCNc1ccc(C(=O)NC(CCC(=O)O)C(=O)O)cc1` (stereo not drawn) [compound 7], the “fold changes relative to vehicle control” value is 1.12 in assay [1] (setting [10]); 0.97 in assay [2] (setting [11]); 1.04 in assay [3] (setting [12]); 1.05 in assay [4] (HeLa, captured protein ATP5F1); 0.92 in assay [5] (HeLa, protein HSPA4); 0.97 in [6] (HeLa, protein HDGF). The “fold changes relative to vehicle control” value in assay [7] (HeLa, captured protein PPP2CA) worked out at 0.97; in [8] (setting [13]), 0.96; in assay [9] (protein COPG, HeLa), 1.03.

`Nc1nc2[nH]cc(CCc3ccc(C(=O)N[C@@H](CCC(=O)O)C(=O)O)cc3)c2c(=O)[nH]1` [PTX, pemetrexed]: the “fold changes relative to vehicle control” value in assay [1] is listed as 1.05; in assay [2] it was 0.96; in assay [3] it was 1.09; in [4], 1.13; in assay [5] it was 1.09; in [6] it was 1.21. In addition, the “fold changes relative to vehicle control” value in [7] came out at 0.93; in assay [8], 1.11; in assay [9], 0.95.

`Nc1nc2cccc(-c3ccccc3)c2n1Cc1ccc(Cl)c(Cl)c1` [compound 3]: the “fold changes relative to vehicle control” value in assay [1] (captured protein BAG4, HeLa) was 1.25; in [2] (protein DLAT, HeLa), 1.1; in assay [3] (protein ACADS, HeLa), 0.99; in [4] (HeLa, protein ATP5F1), 0.88; in assay [5] (protein HSPA4, HeLa) it was 0.92; in assay [6] (protein HDGF, HeLa), 0.9. For the same compound, the “fold changes relative to vehicle control” value in assay [7] (HeLa, protein PPP2CA) was found to be 0.91; in [8] (HeLa, protein UPP1) it was 1.05; in assay [9] (protein COPG, HeLa), 1.14.
